Source: patent US20020137929A1, “1 - (3-heterocyclylphenyl) isothiourea, -isourea, -guanidine and -amidine herbicidal agents” (Intellectual Property Department, BASF Aktiengesellschaft, priority 1998, published 2002)

Key:
ABUTH (Velvetleaf) = assay: Postemergence herbicidal evaluation; format: in vivo, Abutilon theophrasti; conditions: postemergence
Summary of the method: (§1)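 First, seedlings were raised for around two weeks. Next, test material in 50/50 acetone/water containing 0.5% TWEEN 20 was sprayed through a nozzle at 40 psi, equivalent to about 0.0156–0.500 kg/ha. Finally, after 4–5 weeks in the greenhouse, plants were rated 0–9.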

GALAP (Galium) = assay: Postemergence herbicidal evaluation; format: in vivo, Galium aparine; conditions: postemergence
Summary of the method: as §1

ECHCG (Barnyardgrass) = assay: Postemergence herbicidal evaluation; format: in vivo, Echinochloa crus-galli; conditions: postemergence
Summary of the method: as §1

SETVI (Foxtail, Green) = assay: Postemergence herbicidal evaluation; format: in vivo, Setaria viridis; conditions: postemergence
Summary of the method: as §1

ORYSAT (Rice, Tebonnet) = assay: Postemergence herbicidal evaluation; format: in vivo, Oryza sativa, (L.) Tebonnet; conditions: postemergence
Summary of the method: as §1

[1] = test system: IPOHE (Morningglory, Ivyleaf); assay: Preemergence herbicidal evaluation; format: in vivo, Ipomoea hederacea; conditions: rated 4-5 weeks after treatment; for IPOHE rating: preemergence, 0-9 scale
Summary of the method: (§2)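 Herbicidal effect scored visually, 0-9, at 4 to 5 weeks against a control; compound applied preemergence by aqueous acetone spray to seeded soil at about 0.0156 to 0.500 kg/ha.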

[2] = test system: TRZAWR (Wheat, Winter, cv Riband); assay: Preemergence herbicidal evaluation; format: in vivo, Triticum aestivum; conditions: rated 4-5 weeks after treatment; for TRZAWR rating: preemergence, 0-9 scale
Summary of the method: as §2

ZEAMX (Corn, Field) = assay: Preemergence herbicidal evaluation; format: in vivo, Zea mays; conditions: rated 4-5 weeks after treatment; for ZEAMX rating: preemergence, 0-9 scale
Summary of the method: as §2

[3] = test system: ECHORC (Watergrass (Calif.)); assay: Preemergence weed control under flooded paddy conditions; format: in vivo, Echinochloa oryzoides; conditions: rated 3-4 weeks after treatment
Summary of the method: (§3)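 Visual injury scored 0-9 against control three to four weeks post-treatment, greenhouse-grown. Application: acetone/water (50/50) solutions dosed directly into flood water (1.5-3 cm over silt loam, planted top 0.5 cm), roughly 0.0313 to 0.500 kg/ha active ingredient.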

CYPIR (Rice Flatsedge) [4] = assay: as above; format: in vivo, Cyperus iria; conditions: rated 3-4 weeks after treatment
Summary of the method: as §3

MOOVA (Monochoria) = assay: as above; format: in vivo, Monochoria vaginalis; conditions: rated 3-4 weeks after treatment
Summary of the method: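 Herbicidal effect is scored visually on a 0-9 scale against an untreated control, three to four weeks after compounds are pipetted into the flood water (1.5 to 3 cm deep) over seeds planted in silt loam at 0.5 cm depth. Rates: about 0.0313 to 0.500 kg/ha.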

CYPIR (Rice Flatsedge) [5] = assay: Postemergence weed control under flooded paddy conditions; format: in vivo, Cyperus iria; conditions: postemergence weeds
Summary of the method: (§4)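 Herbicidal effect is judged by eye on a 0–9 scale versus control, 3–4 weeks after dosing. Dosing is into flood water kept 1.5–3 cm over the soil, at about 0.0313–0.500 kg/ha in aqueous/acetone 50/50 v/v, on 3–5 cm weeds and 1.5–2.5-leaf rice seedlings.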

CYPSE (Flatsedge) = assay: as above; format: in vivo, Cyperus serotinus; conditions: postemergence weeds
Summary of the method: as §4

[6] = test system: SAGPY (Arrowhead (Pygmaea)); assay: as above; format: in vivo, Sagittaria pygmaea; conditions: postemergence weeds
Summary of the method: as §4

[7] = rate 0.1160 kg/ha, 3-4 weeks after treatment
[8] = rate 0.2310 kg/ha, 3-4 weeks after treatment
[9] = rate 0.4630 kg/ha, 3-4 weeks after treatment
[10] = Rate 0.0313 kg/ha, rated 3 to 4 weeks after treatment
[11] = Rate 0.0625 kg/ha, rated 3 to 4 weeks after treatment
[12] = Rate 0.1250 kg/ha, rated 3 to 4 weeks after treatment
[13] = Rate 0.2500 kg/ha, rated 3 to 4 weeks after treatment

SMILES: CCOC(=O)CN1C(=O)CO/C1=N/c1cc(-n2c(=O)cc(C(F)(F)F)n(C)c2=O)c(F)cc1Cl [Compound 22, Ethyl 2-{{2-chloro-5-[3,6-dihydro-3-methyl-2,6-dioxo-4-(trifluoromethyl)-1(2H)-pyrimidinyl]-4-fluorophenyl}imino}-4-oxo-3-oxazolidineacetate]
- ABUTH herbicidal rating (ABUTH (Velvetleaf); rate 0.0158 kg/ha): 9.0
- ABUTH herbicidal rating (ABUTH (Velvetleaf); rate 0.0315 kg/ha): 9.0
- ABUTH herbicidal rating (ABUTH (Velvetleaf); rate 0.0630 kg/ha): 9.0
- GALAP herbicidal rating (GALAP (Galium); rate 0.0158 kg/ha): 4.0
- GALAP herbicidal rating (GALAP (Galium); rate 0.0315 kg/ha): 4.0
- GALAP herbicidal rating (GALAP (Galium); rate 0.0630 kg/ha): 3.0
- ECHCG herbicidal rating (ECHCG (Barnyardgrass); rate 0.0158 kg/ha): 2.0
- ECHCG herbicidal rating (ECHCG (Barnyardgrass); rate 0.0315 kg/ha): 2.0
- ECHCG herbicidal rating (ECHCG (Barnyardgrass); rate 0.0630 kg/ha): 1.0
- SETVI herbicidal rating (SETVI (Foxtail, Green); rate 0.0158 kg/ha): 3.0
- SETVI herbicidal rating (SETVI (Foxtail, Green); rate 0.0315 kg/ha): 5.0
- SETVI herbicidal rating (SETVI (Foxtail, Green); rate 0.0630 kg/ha): 7.0
- ORYSAT herbicidal rating (ORYSAT (Rice, Tebonnet); rate 0.0158 kg/ha): 2.5
- ORYSAT herbicidal rating (ORYSAT (Rice, Tebonnet); rate 0.0315 kg/ha): 3.0
- ORYSAT herbicidal rating (ORYSAT (Rice, Tebonnet); rate 0.0630 kg/ha): 4.5
- IPOHE preemergence herbicidal rating ([1]; rate 0.0156 kg/ha): 0.0
- IPOHE preemergence herbicidal rating ([1]; rate 0.0313 kg/ha): 2.0
- IPOHE preemergence herbicidal rating ([1]; rate 0.0625 kg/ha): 9.0
- IPOHE preemergence herbicidal rating ([1]; rate 0.1250 kg/ha): 9.0
- IPOHE preemergence herbicidal rating ([1]; rate 0.2500 kg/ha): 9.0
- TRZAWR preemergence herbicidal rating ([2]; rate 0.0156 kg/ha): 0.0
- TRZAWR preemergence herbicidal rating ([2]; rate 0.0313 kg/ha): 0.0
- TRZAWR preemergence herbicidal rating ([2]; rate 0.0625 kg/ha): 1.0
- TRZAWR preemergence herbicidal rating ([2]; rate 0.1250 kg/ha): 5.0
- TRZAWR preemergence herbicidal rating ([2]; rate 0.2500 kg/ha): 7.0
- ZEAMX preemergence herbicidal rating (ZEAMX (Corn, Field); rate 0.0156 kg/ha): 2.0
- ZEAMX preemergence herbicidal rating (ZEAMX (Corn, Field); rate 0.0313 kg/ha): 5.0
- ZEAMX preemergence herbicidal rating (ZEAMX (Corn, Field); rate 0.0625 kg/ha): 7.0
- ZEAMX preemergence herbicidal rating (ZEAMX (Corn, Field); rate 0.1250 kg/ha): 8.0
- ZEAMX preemergence herbicidal rating (ZEAMX (Corn, Field); rate 0.2500 kg/ha): 9.0
- Herbicidal rating ECHORC ([3]; 0.1160 kg/ha): 6.0
- Herbicidal rating ECHORC ([3]; 0.2310 kg/ha): 9.0
- Herbicidal rating ECHORC ([3]; 0.4630 kg/ha): 9.0
- Herbicidal rating CYPIR (CYPIR (Rice Flatsedge) [4]; 0.1160 kg/ha): 0.0
- Herbicidal rating CYPIR (CYPIR (Rice Flatsedge) [4]; 0.2310 kg/ha): 0.0
- Herbicidal rating CYPIR (CYPIR (Rice Flatsedge) [4]; 0.4630 kg/ha): 5.0
- Herbicidal rating MOOVA (MOOVA (Monochoria); 0.1160 kg/ha): 9.0
- Herbicidal rating MOOVA (MOOVA (Monochoria); 0.2310 kg/ha): 9.0
- Herbicidal rating MOOVA (MOOVA (Monochoria); 0.4630 kg/ha): 9.0
- Herbicidal rating CYPIR (CYPIR (Rice Flatsedge) [5]; [7]): 0.0
- Herbicidal rating CYPIR (CYPIR (Rice Flatsedge) [5]; [8]): 0.0
- Herbicidal rating CYPIR (CYPIR (Rice Flatsedge) [5]; [9]): 5.0
- Herbicidal rating CYPSE (CYPSE (Flatsedge); [7]): 4.0
- Herbicidal rating CYPSE (CYPSE (Flatsedge); [8]): 4.0
- Herbicidal rating CYPSE (CYPSE (Flatsedge); [9]): 4.0
- Herbicidal rating SAGPY [6, 7]: 4.0
- Herbicidal rating SAGPY [6, 8]: 4.0
- Herbicidal rating SAGPY [6, 9]: 5.0

SMILES: C=CCN1C(=O)C(CC(=O)NC)SC1=Nc1cc(-n2c(=O)cc(C(F)(F)F)n(C)c2=O)c(F)cc1Cl (centres unmarked) [Compound 84, 3-Allyl-2-{{2-chloro-5-[3,6-dihydro-3-methyl-2,6-dioxo-4-(trifluoromethyl)-1(2H)-pyrimidinyl]-4-fluorophenyl}imino}-N-methyl-4-oxo-5-thiazolidineacetamide]
- ABUTH herbicidal rating (ABUTH (Velvetleaf); rate 0.0156 kg/ha): 9.0
- ABUTH herbicidal rating (ABUTH (Velvetleaf); rate 0.0313 kg/ha): 9.0
- ABUTH herbicidal rating (ABUTH (Velvetleaf); rate 0.0625 kg/ha): 9.0
- ABUTH herbicidal rating (ABUTH (Velvetleaf); rate 0.1250 kg/ha): 9.0
- GALAP herbicidal rating (GALAP (Galium); rate 0.0156 kg/ha): 1.0
- GALAP herbicidal rating (GALAP (Galium); rate 0.0313 kg/ha): 2.0
- GALAP herbicidal rating (GALAP (Galium); rate 0.0625 kg/ha): 4.0
- GALAP herbicidal rating (GALAP (Galium); rate 0.1250 kg/ha): 7.0
- ECHCG herbicidal rating (ECHCG (Barnyardgrass); rate 0.0156 kg/ha): 0.0
- ECHCG herbicidal rating (ECHCG (Barnyardgrass); rate 0.0313 kg/ha): 0.0
- ECHCG herbicidal rating (ECHCG (Barnyardgrass); rate 0.0625 kg/ha): 0.0
- ECHCG herbicidal rating (ECHCG (Barnyardgrass); rate 0.1250 kg/ha): 0.0
- SETVI herbicidal rating (SETVI (Foxtail, Green); rate 0.0156 kg/ha): 0.0
- SETVI herbicidal rating (SETVI (Foxtail, Green); rate 0.0313 kg/ha): 0.0
- SETVI herbicidal rating (SETVI (Foxtail, Green); rate 0.0625 kg/ha): 0.0
- SETVI herbicidal rating (SETVI (Foxtail, Green); rate 0.1250 kg/ha): 2.0
- ORYSAT herbicidal rating (ORYSAT (Rice, Tebonnet); rate 0.0156 kg/ha): 0.5
- ORYSAT herbicidal rating (ORYSAT (Rice, Tebonnet); rate 0.0313 kg/ha): 1.0
- ORYSAT herbicidal rating (ORYSAT (Rice, Tebonnet); rate 0.0625 kg/ha): 1.5
- ORYSAT herbicidal rating (ORYSAT (Rice, Tebonnet); rate 0.1250 kg/ha): 3.0
- IPOHE rating ([1]; 0.0156 kg/ha): 0.0
- IPOHE rating ([1]; 0.0313 kg/ha): 0.0
- IPOHE rating ([1]; 0.0625 kg/ha): 0.0
- IPOHE rating ([1]; 0.1250 kg/ha): 1.0
- IPOHE rating ([1]; 0.2500 kg/ha): 9.0
- IPOHE rating ([1]; 0.5000 kg/ha): 9.0
- TRZAWR rating ([2]; 0.0156 kg/ha): 0.0
- TRZAWR rating ([2]; 0.0313 kg/ha): 0.0
- TRZAWR rating ([2]; 0.0625 kg/ha): 0.0
- TRZAWR rating ([2]; 0.1250 kg/ha): 4.0
- TRZAWR rating ([2]; 0.2500 kg/ha): 6.0
- TRZAWR rating ([2]; 0.5000 kg/ha): 9.0
- ZEAMX rating (ZEAMX (Corn, Field); 0.0156 kg/ha): 0.0
- ZEAMX rating (ZEAMX (Corn, Field); 0.0313 kg/ha): 0.0
- ZEAMX rating (ZEAMX (Corn, Field); 0.0625 kg/ha): 0.0
- ZEAMX rating (ZEAMX (Corn, Field); 0.1250 kg/ha): 5.0
- ZEAMX rating (ZEAMX (Corn, Field); 0.2500 kg/ha): 8.0
- ZEAMX rating (ZEAMX (Corn, Field); 0.5000 kg/ha): 9.0
- ECHORC herbicidal effect rating ([3]; 0.0313 kg/ha): 4.0
- ECHORC herbicidal effect rating ([3]; 0.0625 kg/ha): 5.0
- ECHORC herbicidal effect rating ([3]; 0.1250 kg/ha): 7.0
- ECHORC herbicidal effect rating ([3]; 0.2500 kg/ha): 9.0
- CYPIR herbicidal effect rating (CYPIR (Rice Flatsedge) [4]; 0.0313 kg/ha): 3.0
- CYPIR herbicidal effect rating (CYPIR (Rice Flatsedge) [4]; 0.0625 kg/ha): 7.0
- CYPIR herbicidal effect rating (CYPIR (Rice Flatsedge) [4]; 0.1250 kg/ha): 9.0
- CYPIR herbicidal effect rating (CYPIR (Rice Flatsedge) [4]; 0.2500 kg/ha): 9.0
- MOOVA herbicidal effect rating (MOOVA (Monochoria); 0.0313 kg/ha): 9.0
- MOOVA herbicidal effect rating (MOOVA (Monochoria); 0.0625 kg/ha): 9.0
- MOOVA herbicidal effect rating (MOOVA (Monochoria); 0.1250 kg/ha): 9.0
- MOOVA herbicidal effect rating (MOOVA (Monochoria); 0.2500 kg/ha): 9.0
- Herbicidal rating CYPIR (CYPIR (Rice Flatsedge) [5]; [10]): 3.0
- Herbicidal rating CYPIR (CYPIR (Rice Flatsedge) [5]; [11]): 7.0
- Herbicidal rating CYPIR (CYPIR (Rice Flatsedge) [5]; [12]): 9.0
- Herbicidal rating CYPIR (CYPIR (Rice Flatsedge) [5]; [13]): 9.0
- Herbicidal rating CYPSE (CYPSE (Flatsedge); [10]): 0.0
- Herbicidal rating CYPSE (CYPSE (Flatsedge); [11]): 3.0
- Herbicidal rating CYPSE (CYPSE (Flatsedge); [12]): 9.0
- Herbicidal rating CYPSE (CYPSE (Flatsedge); [13]): 9.0
- Herbicidal rating SAGPY [6, 10]: 2.0
- Herbicidal rating SAGPY [6, 11]: 6.0
- Herbicidal rating SAGPY [6, 12]: 7.0
- Herbicidal rating SAGPY [6, 13]: 9.0
